From patent EP4763837A1, “PHOTOCHROMIC COMPOUND, CURABLE COMPOSITION, OPTICAL ARTICLE, LENS, AND EYEGLASSES” (TOKUYAMA CORPORATION, priority 2023, dated 2025)
Where “and” joins values, the source holds several entries; their conditions need not be identical. Identical values can stand only once.

What was measured:
Assay type in all cases: physicochemical
[1] = Photochromic property of photochromic laminate made by coating method
Summary of the method: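 Compound at 0.25 mmol per 100 g methacrylate monomer mix, spin-coated 40 µm on a primed thiourethane lens, photocured 90 s under N2, then 110°C for 1 h. λmax and A23 measured after 240 s irradiation at 23°C; τ1/2 is time to half-fade after irradiation stops. Residual ratio A96/A0 after 96 h xenon weathering.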

[2] = Photochromic property of photochromic cured product made by kneading method; details: for Residual ratio: A96/A0 x 100 after 96 hours accelerated degradation, xenon weather meter X25; for Color developing density at 23°C: absorbance difference after 240 seconds irradiation at the maximum absorption wavelength of the same line
Protocol: (§1) The resulting photochromic laminates were evaluated by the below-mentioned methods. • (1) Photochromic property • [1] Maximum absorption wavelength (λmax): This is the maximum absorption wavelength after color development determined by a spectrophotometer manufactured by Otsuka Electronics Co., Ltd. (instantaneous multichannel photo detector MCPD3000) and was used as an index of a color tone upon color development. • [2] Color developing density at 23°C (A23): This is a difference between an absorbance {ε(240)} after irradiation with light at 23°C for 240 seconds and an absorbance ε(0) when not irradiated with light at the maximum absorption wavelength and was used as an index of a color developing density. The higher this value is, the better a photochromic property is. • [3] Color fading half-life at 23°C [τ1/2 (sec).)]: This is a period of time taken by an absorbance at the maximum absorption wavelength of a sample to decrease to 1/2 of {ε(240)-ε(0)} when irradiation is stopped after irradiation with light at 23°C for 240 seconds, and was used as an index of a color fading rate. The shorter this period of time is, the faster the color fading rate is. • [4] Residual ratio (A96/A0 x 100): The resulting photochromic plastic lens was subjected to accelerated degradation for 96 hours using a xenon weather meter X25 manufactured by Suga Test Instruments Co., Ltd. Color developing densities were then evaluated before and after a test, and a color developing density before the test (A0) and a color developing density after the test (A96) were measured. A ratio (A96/A0) was determined as a residual ratio and was used as an index of color development durability. The higher the residual ratio is, the more durable the color development is.
First, the photochromic compound obtained in Example 1, an additive, and a polymerizable compound were mixed to obtain a curable composition. The polymerizable compound was a combination of the following polymerizable monomers: • · 1,3-Bis(isocyanatomethyl)cyclohexane: 36.7 parts by mass • · Pentaerythritol tetrakis(3-mercaptopropionate): 39.4 parts by mass • · Polyoxyethylene polyoxypropylene lauryl ether (WONDERSURF 140 manufactured by AOKI OIL INDUSTRIAL Co., Ltd.): 17.4 parts by mass • · 1-Decanethiol: 2.8 parts by mass • · RX-1 prepared by the method described in Patent Document 14: 3.8 parts by mass
Note that, in the curable composition, the photochromic compound was added in an amount of 0.106 mmol taking a total amount of the polymerizable monomers as 100 g.
The following additives were used: • · Dimethyltin dichloride: 0.05 parts by mass • · Irganox 245: 0.1 parts by mass • · 2-Ethylhexyl […]: 0.6 parts by mass
After the thus-prepared curable composition was thoroughly defoamed, it was poured into a glass mold with a gap of 1 mm and polymerized by casting polymerization. […] After the polymerization, the resulting cured product was removed from the glass mold to obtain a photochromic cured product with a thickness of 1 mm. The resulting photochromic cured product was evaluated in the same manner as for Example 23.
Photochromic cured products were produced using the photochromic compounds shown in Table 4 in the same manner as in Example 50.

[3] = Photochromic property of binder sheet (photochromic layer made by binder method); details: for Color developing density at 23°C: absorbance difference after 240 seconds irradiation at the maximum absorption wavelength of the same line
Protocol: as §1
A binder sheet was produced as follows. The binder sheet was made by laminating a first optical sheet, a first adhesive layer, a photochromic layer, a second adhesive layer, and a second optical sheet in this order. A polycarbonate sheet with a thickness of 400 µm was used as the first optical sheet and the second optical sheet.
A 2 L four-necked flask equipped with a stirring blade, a condense tube, a thermometer, and a nitrogen gas inlet tube was charged with 315 parts by mass of polycarbonate diol with a number average molecular weight of 1000, 100 parts by mass of isophorone diisocyanate, and 72 parts by mass of toluene and reacted under a nitrogen atmosphere at 100°C for 7 hours. Thus, a urethane prepolymer with a terminal isocyanate group was synthesized. After the reaction of the above-mentioned urethane prepolymer was completed, the resulting reaction liquid was cooled to about 0°C and dissolved in 205 parts by mass of tertiary-butyl alcohol and 382 parts by mass of diethyl ketone, and then a temperature of the resulting liquid was kept at 0°C. Next, a mixed solution of 21.3 parts by mass of bis-(4-aminocyclohexyl)methane serving as a chain extender and 20 parts by mass of diethyl ketone was added dropwise thereto within 30 minutes and reacted at 0°C for 1 hour. Then, 8.1 parts by mass of 1,2,2,6,6-pentamethyl-4-aminopiperidine was added dropwise thereto and reacted at 0°C for 1 hour to obtain a solution of a terminal non-reactive urethane urea resin in diethylketone.
One hundred parts by mass of the resulting solution of a terminal non-reactive urethane urea resin, 6.3 parts by mass of Example 1 (a photochromic compound represented by Formula (1-7), an isomer mixture of 4,4'-methylenebis(cyclohexylisocyanate) (polyisocyanate compound)), 0.4 parts by mass of ethylenebis(oxyethylene) bis[3-(5-tert-butyl-4-hydroxy-m-tolyl) propionate] serving as an antioxidant, and 0.06 parts by mass of L-7001 manufactured by DuPont Toray Specialty Materials K.K. serving as a surfactant were added and stirred and mixed at room temperature to obtain a composition for forming a photochromic layer. […]

Color fading half-life at 23°C [1] [min]	Residual ratio ([1]; laminate by coating method, A96/A0 x 100 after 96 hours accelerated degradation, xenon weather meter X25) [%]	Residual ratio [2]	Color developing density at 23°C [2]	Color developing density at 23°C [3]	Residual ratio ([3]; A96/A0 x 100 after 96 hours accelerated degradation, xenon weather meter X25) [%]	Compound
1.65	68	78%	0.90 - and 0.89 -	0.89 - and 0.83 -		CCCCC1(CC)c2ccccc2-c2c1c1c(c3cc(OC)c(C)cc23)OC(c2ccc(OC)cc2)(c2ccc(OCCC)cc2)C=C1 (stereo not shown) [Formula (2-2)]
0.717		79% and 77%	0.77 - and 0.74 -	0.76 - and 0.75 -	90	CCCC1(CC)c2ccccc2-c2c1c1c(c3cc(OC)c(Sc4c(C)cccc4C)cc23)OC(c2ccc(OC)cc2)(c2ccc(N3CCOCC3)cc2)C=C1 (stereo not shown) [Formula (4-5)]
